Key:
[1] = tested on: Strep. faecalis L149 ATCC 7080; experiment: MIC, microbroth dilution; assay type: cell-based, Streptococcus faecalis; settings: inocula 10^4 to 10^5 CFU/ml, Iso-Sensitest broth, 18-24 h, 37° C.
Protocol: (§1) MIC for Propionibacterium aches, and Bacteroides fragilis are determined by agar dilution (inocula 10^4 /10^5 CFU/spot). MIC for other organisms are determined by microbroth dilution (inocula 10^4 to 10^5 CFU/ml). Incubation times are 18-24 h, except for Haemophilus influenzae, P. acnes, B. fragilis (48 h). All organisms are incubated at 37° C.; H. influenzae is incubated in a 5% CO2 atmosphere, anaerobes in an anaerobic gas mixture. Media used are: Iso-Sensitest broth (Oxoid) (Staphylococci, Streptococcus faecalis, Escherichia coli, Proteus vulgaris; brain heart infusion broth (Difco)+1% Supplement C (Difco) (H. influenzae); The minimal inhibitory concentrations (MIC, microgram/ml) for some microorganisms are reported below in Table VII.

[2] = tested on: Bact. fragilis L1010 ATCC 23745; experiment: MIC, agar dilution; assay type: cell-based, Bacteroides fragilis; settings: inocula 10^4 /10^5 CFU/spot, 48 h, 37° C., anaerobic gas mixture
Protocol: as §1

[3] = tested on: Staph. epidermidis L147 ATCC 12228; experiment: MIC, microbroth dilution; assay type: cell-based; settings: inocula 10^4 to 10^5 CFU/ml, Iso-Sensitest broth, 18-24 h, 37° C.
Protocol: as §1

[4] = tested on: Haemophilus Influenzae type B; experiment: MIC, microbroth dilution; assay type: cell-based; settings: brain heart infusion broth +1% Supplement C, 48 h, 37° C., 5% CO2
Protocol: as §1

[5] = tested on: Staph. aureus L165 Tour; experiment: MIC, microbroth dilution; assay type: cell-based; settings: inocula 10^4 to 10^5 CFU/ml, Iso-Sensitest broth, 18-24 h, 37° C.
Protocol: as §1

[6] = tested on: Staph. haemolyticus L602; experiment: MIC, microbroth dilution; assay type: cell-based; settings: inocula 10^4 to 10^5 CFU/ml, Iso-Sensitest broth, 18-24 h, 37° C.
Protocol: as §1

[7] = tested on: Strep. pneumoniae L44 UC41; experiment: MIC, microbroth dilution; assay type: cell-based; settings: inocula 10^4 to 10^5 CFU/ml, 18-24 h, 37° C.
Protocol: as §1

[8] = tested on: Esch. coli L47 SKF 12140; experiment: MIC, microbroth dilution; assay type: cell-based, Escherichia coli; settings: inocula 10^4 to 10^5 CFU/ml, Iso-Sensitest broth, 18-24 h, 37° C.
Protocol: as §1

[9] = tested on: Prot. vulgaris ATCC 881; experiment: MIC, microbroth dilution; assay type: cell-based, Proteus vulgaris; settings: inocula 10^4 to 10^5 CFU/ml, Iso-Sensitest broth, 18-24 h, 37° C.
Protocol: as §1

[10] = tested on: Prop. acnes L1014 ATCC 6919; experiment: MIC, agar dilution; assay type: cell-based, P. acnes; settings: inocula 10^4 /10^5 CFU/spot, 48 h, 37° C., anaerobic gas mixture
Protocol: as §1

Row | Structure (SMILES) | MIC [1] | MIC [2] | MIC [3] | MIC [4] | MIC [5] | MIC [6] | MIC [7] | MIC [8] | MIC [9] | MIC [10]
1 | CNC(=O)CC1NC(=O)c2nc(sc2COC)C(C(C)C)NC(=O)c2csc(n2)-c2ccc(-c3nc(C(=O)NCC(=O)O)cs3)nc2-c2csc(n2)-c2csc(n2)C(C(O)c2ccccc2)NC(=O)CNC(=O)c2nc1sc2C (stereo not shown) [Compound 1] | 0.25 microgram/ml | 8 microgram/ml | 1 microgram/ml | 8 microgram/ml | 0.5 microgram/ml | 4 microgram/ml | 8 microgram/ml | > 128 microgram/ml | > 128 microgram/ml | < 0.13 microgram/ml
2 | CNC(=O)CC1NC(=O)c2nc(sc2COC)C(C(C)C)NC(=O)c2csc(n2)-c2ccc(-c3nc(C(=O)NC(CCCN)C(=O)O)cs3)nc2-c2csc(n2)-c2csc(n2)C(C(O)c2ccccc2)NC(=O)CNC(=O)c2nc1sc2C.O=C(O)C(F)(F)F (stereo not shown) [Compound 2] | 0.06 microgram/ml | > 128 microgram/ml | 0.25 microgram/ml | > 128 microgram/ml | 0.13 microgram/ml | 16 microgram/ml | > 128 microgram/ml | > 128 microgram/ml | > 128 microgram/ml | 0.06 microgram/ml
3 | CNC(=O)CC1NC(=O)c2nc(sc2COC)C(C(C)C)NC(=O)c2csc(n2)-c2ccc(-c3nc(C(=O)NC(CC(C)C)C(=O)O)cs3)nc2-c2csc(n2)-c2csc(n2)C(C(O)c2ccccc2)NC(=O)CNC(=O)c2nc1sc2C (stereo not shown) [Compound 6] | < 0.13 microgram/ml | > 128 microgram/ml | 1 microgram/ml | 32 microgram/ml | < 0.13 microgram/ml | 1 microgram/ml | 2 microgram/ml | > 128 microgram/ml | > 128 microgram/ml | < 0.13 microgram/ml
4 | CNC(=O)CC1NC(=O)c2nc(sc2COC)C(C(C)C)NC(=O)c2csc(n2)-c2ccc(-c3nc(C(=O)NC(Cc4ccccc4)C(=O)O)cs3)nc2-c2csc(n2)-c2csc(n2)C(C(O)c2ccccc2)NC(=O)CNC(=O)c2nc1sc2C (stereo not shown) [Compound 7] | > 0.13 microgram/ml | > 128 microgram/ml | 0.5 microgram/ml | 128 microgram/ml | 0.25 microgram/ml | 4 microgram/ml | 4 microgram/ml | > 128 microgram/ml | > 128 microgram/ml | < 0.13 microgram/ml
5 | CNC(=O)CC1NC(=O)c2nc(sc2COC)C(C(C)C)NC(=O)c2csc(n2)-c2ccc(-c3nc(C(=O)NC(CCSC)C(=O)O)cs3)nc2-c2csc(n2)-c2csc(n2)C(C(O)c2ccccc2)NC(=O)CNC(=O)c2nc1sc2C (stereo not shown) [Compound 8] | 0.25 microgram/ml | 32 microgram/ml | 2 microgram/ml | 64 microgram/ml | 0.25 microgram/ml | 2 microgram/ml | 4 microgram/ml | > 128 microgram/ml | > 128 microgram/ml | < 0.13 microgram/ml
6 | CNC(=O)CC1NC(=O)c2nc(sc2COC)C(C(C)C)NC(=O)c2csc(n2)-c2ccc(-c3nc(C(=O)NCC(=O)N4CCCC4C(N)=O)cs3)nc2-c2csc(n2)-c2csc(n2)C(C(O)c2ccccc2)NC(=O)CNC(=O)c2nc1sc2C (stereo not shown) [Compound 14] | 0.06 microgram/ml | > 128 microgram/ml | 0.13 microgram/ml | > 128 microgram/ml | 0.06 microgram/ml | 0.25 microgram/ml | > 128 microgram/ml | > 128 microgram/ml | > 128 microgram/ml | 0.03 microgram/ml
7 | CNC(=O)CC1NC(=O)c2nc(sc2COC)C(C(C)C)NC(=O)c2csc(n2)-c2ccc(-c3nc(C(=O)NCCCC(=O)O)cs3)nc2-c2csc(n2)-c2csc(n2)C(C(O)c2ccccc2)NC(=O)CNC(=O)c2nc1sc2C (stereo not shown) [Compound 18] | 0.13 microgram/ml | 2 microgram/ml | 0.25 microgram/ml | 2 microgram/ml | 0.25 microgram/ml | 1 microgram/ml | 1 microgram/ml | > 128 microgram/ml | > 128 microgram/ml | 0.016 microgram/ml
8 | CNC(=O)CC1NC(=O)c2nc(sc2COC)C(C(C)C)NC(=O)c2csc(n2)-c2ccc(-c3nc(C(=O)NCCCCCC(=O)O)cs3)nc2-c2csc(n2)-c2csc(n2)C(C(O)c2ccccc2)NC(=O)CNC(=O)c2nc1sc2C (stereo not shown) [Compound 19] | 0.06 microgram/ml | 4 microgram/ml | 0.06 microgram/ml | 2 microgram/ml | 0.06 microgram/ml | 0.25 microgram/ml | 0.25 microgram/ml | > 128 microgram/ml | > 128 microgram/ml | 0.008 microgram/ml
9 | CNC(=O)CC1NC(=O)c2nc(sc2COC)C(C(C)C)NC(=O)c2csc(n2)-c2ccc(-c3nc(C(=O)NCCCCCCCC(=O)O)cs3)nc2-c2csc(n2)-c2csc(n2)C(C(O)c2ccccc2)NC(=O)CNC(=O)c2nc1sc2C (stereo not shown) [Compound 20] | < 0.13 microgram/ml | > 128 microgram/ml | 0.25 microgram/ml | > 128 microgram/ml | 0.25 microgram/ml | 0.25 microgram/ml | 2 microgram/ml | > 128 microgram/ml | > 128 microgram/ml | 0.03 microgram/ml
10 | CNC(=O)CC1NC(=O)c2nc(sc2COC)C(C(C)C)NC(=O)c2csc(n2)-c2ccc(-c3nc(C(=O)NCCN(C)C)cs3)nc2-c2csc(n2)-c2csc(n2)C(C(O)c2ccccc2)NC(=O)CNC(=O)c2nc1sc2C (stereo not shown) [Compound 32] | 0.25 microgram/ml | > 128 microgram/ml | 0.5 microgram/ml | > 128 microgram/ml | 0.5 microgram/ml | 0.5 microgram/ml | 1 microgram/ml | > 128 microgram/ml | > 128 microgram/ml | 0.13 microgram/ml
11 | CNC(=O)CC1NC(=O)c2nc(sc2COC)C(C(C)C)NC(=O)c2csc(n2)-c2ccc(-c3nc(C(N)=O)cs3)nc2-c2csc(n2)-c2csc(n2)C(C(O)c2ccccc2)NC(=O)CNC(=O)c2nc1sc2C (stereo not shown) [Compound 35] | 0.06 microgram/ml | > 128 microgram/ml | 0.13 microgram/ml | > 128 microgram/ml | 0.13 microgram/ml | 0.5 microgram/ml | > 128 microgram/ml | > 128 microgram/ml | > 128 microgram/ml | 0.004 microgram/ml
12 | CNC(=O)CC1NC(=O)c2nc(sc2COC)C(C(C)C)NC(=O)c2csc(n2)-c2ccc(-c3nc(C(=O)NCCCN)cs3)nc2-c2csc(n2)-c2csc(n2)C(C(O)c2ccccc2)NC(=O)CNC(=O)c2nc1sc2C.O=C(O)C(F)(F)F (stereo not shown) [Compound 36] | 0.13 microgram/ml | > 128 microgram/ml | 0.13 microgram/ml | > 128 microgram/ml | 0.13 microgram/ml | 0.13 microgram/ml | 4 microgram/ml | > 128 microgram/ml | > 128 microgram/ml | 0.06 microgram/ml
13 | CNC(=O)CC1NC(=O)c2nc(sc2COC)C(C(C)C)NC(=O)c2csc(n2)-c2ccc(-c3nc(C(=O)NCC=O)cs3)nc2-c2csc(n2)-c2csc(n2)C(C(O)c2ccccc2)NC(=O)CNC(=O)c2nc1sc2C (stereo not shown) [Compound 37] | 0.06 microgram/ml | > 128 microgram/ml | 0.06 microgram/ml | > 128 microgram/ml | 0.03 microgram/ml | 0.13 microgram/ml | > 128 microgram/ml | > 128 microgram/ml | > 128 microgram/ml | 0.004 microgram/ml
14 | CNC(=O)CC1NC(=O)c2nc(sc2COC)C(C(C)C)NC(=O)c2csc(n2)-c2ccc(-c3nc(C(=O)NCCCC=CC(=O)O)cs3)nc2-c2csc(n2)-c2csc(n2)C(C(O)c2ccccc2)NC(=O)CNC(=O)c2nc1sc2C (stereo not shown) [Compound 40] | ≤ 0.13 microgram/ml | 4 microgram/ml | 0.25 microgram/ml | 1 microgram/ml | 0.25 microgram/ml | 1 microgram/ml | 1 microgram/ml | > 128 microgram/ml | > 128 microgram/ml | –

From patent US5599791A, “Amides of antibiotic GE 2270 factors” (Gruppo Lepetit SPA, priority 1991, dated 1997)
